Laboratory results as given in patent US20230227917A1, “PREDICTING RESPONSE TO PD-1 AXIS INHIBITORS” (Hoffmann-La Roche Inc., priority 2020, published 2023).

What was measured:
Assay type in all cases: in vivo, human
[1] = system: patients with locally advanced or metastatic Non-Small Cell Lung Cancer; experiment: Survival by stem cell score, Phase III trial OAK (NCT02008227), Atezolizumab vs Docetaxel; settings: for HR overall survival, score low vs high: within treatment
Excerpt: We hypothesized that patients with a low abundance of stem cell maintenance-related cancer cells may respond to PD-L1 blockade leading to beneficial effect in patients who received the treatment. We analyzed 739 patients with non-small cell lung cancer who received Atezolizumab (MPDL3280A, n=358) and Docetaxel (n=381) in a Phase III clinical trial (NCT02008227, OAK) (https://clinicaltrials.gov/ct2/show/NCT02008227). This study was sponsored by Genentech Inc., a member of the Roche Group, which provided the study drug.
The protocol and its amendments were approved by the relevant institutional review boards or ethics committees, and all participants provided written informed consent. This study was conducted in accordance with the Declaration of Helsinki and International Conference on Harmonization Guidelines for Good Clinical Practice. Tumor specimens at baseline were archived and taken for gene expression profiling performed by RNA Sequencing (RNA-Seq). In total, 144 human stem cell related genes derived from Gene Ontology were selected and further processed resulting in a selected a list of 4 genes consisting of ASPM, CNOT3, LRPS, and PBX1, which are associated with abundance of stem cell maintenance-related cancer cells. The log2 CPM expression values of each selected gene across the whole cohort were divided at medium expression level for the higher expression ones (+) and lower/no expression ones (−). Using in-house R scripts, the two defined subgroups were plotted against the Kaplan-Meier survival curves.
(§1) As several genes linked to stem cell maintenance-related cancer cells were associated with the survival advantages, we investigated the impact of multiple genes involved in stem cell maintenance-related cancer cells by defining a cumulative cancer stem cell gene score reflecting the cumulative expression of these marker genes. Each gene's expression is first standardized by a z-score:
where μ and μ are estimated in the entire cohort or in the selected subgroups. After the standardization step, these standardized z-score values are averaged across genes within each patient. The OAK cohort was corrected for the sex of patient, age, histolog as well as PD-L1 status. […] In addition, we also identified an advantage in progression-free survival.

[2] = system: patients with locally advanced or metastatic Non-Small Cell Lung Cancer; experiment: Survival by stem cell score, Phase II trial BIRCH (NCT02031458), Atezolizumab
Excerpt: (§2) We hypothesized that patients with a low abundance of stem cell maintenance-related cancer cells may respond to PD-L1 blockade leading to beneficial effect in patients who received the treatment. We analyzed 597 patients with non-small cell lung cancer who received Atezolizumab in a Phase II clinical trial (NCT02031458, BIRCH) (https://clinicaltrials.gov/ct2/show/NCT02031458). This study was sponsored by Genentech Inc., a member of the Roche Group, which provided the study drug. The protocol and its amendments were approved by the relevant institutional review boards or ethics committees, and all participants provided written informed consent. This study was conducted in accordance with the Declaration of Helsinki and International Conference on Harmonization Guidelines for Good Clinical Practice.
(§3) Tumor specimens at baseline were archived and taken for gene expression profiling performed by RNA Sequencing (RNA-Seq).). In total, 144 human stem cell related genes derived from Gene Ontology were selected and further processed resulting in a selected a list of 4 genes consisting of ASPM, CNOT3, LRPS, and PBX1, which are associated with abundance of stem cell maintenance-related cancer cells. The log2 CPM expression values of each selected gene across the whole cohort were divided at medium expression level for the higher expression ones (+) and lower/no expression ones (−). Using in-house R scripts, the two defined subgroups were plotted against the Kaplan-Meier survival curves. […] Table 2 summarizes the median survival as well as HR per single gene used for the stem cell maintenance-related cancer cells signature.
as §1
where μ and μ are estimated in the entire cohort or in the selected subgroups. After the standardization step, these standardized z-score values are averaged across genes within each patient. The BIRCH cohort was corrected for the sex of patient, age as well as smoking status. […] In addition, we also identified an advantage in progression-free survival.

[3] = system: patients with locally advanced or metastatic Urothelial Bladder Cancer; experiment: Survival by stem cell score, Phase III trial IMvigor211 (NCT02302807), Atezolizumab vs standard of care
Excerpt: as §2, with “750” for “597”, “locally advanced or metastatic urothelial bladder” for “non-small cell lung”, “Atezolizumab (n=369), Paclitaxel (n=123), Vinflunine (n=194) or Docetaxel (n=41)” for “Atezolizumab”, “III” for “II”, “(NCT02302807, IMvigor 211) (https://clinicaltrials.gov/ct2/show/NCT02302807).” for “(NCT02031458, BIRCH) (https://clinicaltrials.gov/ct2/show/NCT02031458).”
as §3, with “Sequencing (RNA-Seq).” for “Sequencing (RNA-Seq).).”, “Table 3” for “Table 2”
as §1
where μ and μ are estimated in the entire cohort or in the selected subgroups. After the standardization step, these standardized z-score values are averaged across genes within each patient. The IMvigor211 cohort was corrected for the sex of patient, age as well as smoking status. […] In addition, we also identified an adavantage in progression-free survival.

[4] = cumulative cancer stem cell score (ASPM, CNOT3, LRP5, PBX1) low
[5] = cumulative cancer stem cell score high
[6] = cumulative cancer stem cell score
[7] = gene ASPM, Stem cell score high
[8] = gene CNOT3, Stem cell score high
[9] = gene CNOT3, Stem cell score low
[10] = gene LRP5, Stem cell score high
[11] = gene PBX1, Stem cell score high
[12] = cumulative cancer stem cell score low

CC(=O)O[C@@]12CO[C@@H]1C[C@H](O)[C@@]1(C)C(=O)[C@H](O)C3=C(C)[C@@H](OC(=O)[C@H](O)[C@@H](NC(=O)OC(C)(C)C)c4ccccc4)C[C@@](O)([C@@H](OC(=O)c4ccccc4)[C@H]21)C3(C)C [Docetaxel]
median overall survival [1, 4]: 334 days | median overall survival [1, 5]: 282 days | HR overall survival, score low vs high [1, 6]: 0.76 | Median survival [1, 7]: 270 days | Median survival ([1]; gene ASPM, Stem cell score low): 365 days | Median survival [1, 8]: 299 days | Median survival [1, 9]: 339 days | Median survival [1, 10]: 320 days | Median survival ([1]; gene LRP5, Stem cell score low): 312 days | Median survival [1, 11]: 262 days | Median survival ([1]; gene PBX1, Stem cell score low): 356 days

atezolizumab
HR progression-free survival, score low vs high [1, 6]: 0.69 | median overall survival [1, 4]: 492 days | median overall survival [1, 5]: ~257 days | median progression-free survival [1, 5]: ~51 days | median progression-free survival [1, 12]: ~86 days | HR overall survival, score low vs high [1, 6]: 0.67 | HR overall survival, predictive effect for Atezolizumab ([1]; cumulative stem cell score low group, Atezolizumab vs Docetaxel): 0.72 | Median survival [1, 7]: 256 days | Median survival ([1]; gene ASPM, Stem cell score low): 467 days | HR (Atezo vs SoC) ([1]; gene ASPM, Stem cell score low, Atezolizumab vs Docetaxel): HR: 0.84 | HR (low vs high) ([1]; gene ASPM, score low vs high within treatment): HR: 0.65 | Median survival [1, 8]: 337 days | Median survival [1, 9]: 433 days | HR (Atezo vs SoC) ([1]; gene CNOT3, Stem cell score low, Atezolizumab vs Docetaxel): HR: 0.83 | HR (low vs high) ([1]; gene CNOT3, score low vs high within treatment): HR: 0.89 | Median survival [1, 10]: 384 days | Median survival ([1]; gene LRP5, Stem cell score low): 405 days | HR (Atezo vs SoC) ([1]; gene LRP5, Stem cell score low, Atezolizumab vs Docetaxel): HR: 0.83 | HR (low vs high) ([1]; gene LRP5, score low vs high within treatment): HR: 0.97 | Median survival [1, 11]: 329 days | Median survival ([1]; gene PBX1, Stem cell score low): 456 days | HR (Atezo vs SoC) ([1]; gene PBX1, Stem cell score low, Atezolizumab vs Docetaxel): HR: 0.92 | HR (low vs high) ([1]; gene PBX1, score low vs high within treatment): HR: 0.89 | HR overall survival, score low vs high [2, 6]: 0.77 | HR progression-free survival, score low vs high [2, 6]: 0.74 | median overall survival [2, 5]: ~437 days | median progression-free survival [2, 5]: ~89 days | median overall survival [2, 12]: ~583 days | median progression-free survival [2, 12]: ~127 days | HR (low vs high) ([2]; gene ASPM): HR: 0.78 | Median survival [2, 7]: 457 days | Median survival ([2]; gene ASPM, Stem cell score low): 566 days | HR (low vs high) ([2]; gene CNOT3): HR: 0.88 | Median survival [2, 8]: 482 days | Median survival [2, 9]: 510 days | HR (low vs high) ([2]; gene LRP5): HR: 1.02 | Median survival [2, 10]: 498 days | Median survival ([2]; gene LRP5, Stem cell score low): 471 days | HR (low vs high) ([2]; gene PBX1): HR: 1.02 | Median survival [2, 11]: 510 days | Median survival ([2]; gene PBX1, Stem cell score low): 471 days | HR overall survival, score low vs high [3, 6]: 0.64 | HR progression-free survival, score low vs high [3, 6]: 0.69 | median overall survival [3, 5]: ~211 days | median progression-free survival [3, 5]: ~63 days | median overall survival [3, 12]: ~357 days | median progression-free survival [3, 12]: ~66 days | HR overall survival, predictive effect for Atezolizumab ([3]; cumulative stem cell score low groups, Atezolizumab vs standard of care): 0.70 | HR (low vs high) ([3]; gene ASPM): HR: 1.05 | Median survival [3, 7]: 271 days | HR (Atezo vs SoC) ([3]; gene ASPM, Stem cell score low): HR: 0.93 | Median survival ([3]; gene ASPM, Stem cell score low): 257 days | HR (low vs high) ([3]; gene CNOT3): HR: 0.85 | Median survival [3, 8]: 242 days | HR (Atezo vs SoC) [3, 9]: HR: 0.83 | Median survival [3, 9]: 297 days | HR (low vs high) ([3]; gene LRP5): HR: 0.76 | Median survival [3, 10]: 241 days | HR (Atezo vs SoC) ([3]; gene LRP5, Stem cell score low): HR: 0.74 | Median survival ([3]; gene LRP5, Stem cell score low): 298 days | HR (low vs high) ([3]; gene PBX1): HR: 0.74 | Median survival [3, 11]: 247 days | HR (Atezo vs SoC) ([3]; gene PBX1, Stem cell score low): HR: 0.67 | Median survival ([3]; gene PBX1, Stem cell score low): 279 days
